We go through 52 compounds from patent US20110053897A1 (IRM LLC, priority 2009, published 2011).

The target in the first series is T1, Syk kinase (Homo sapiens, UniProt P43405).
T1 construct: purchased
Description: Syk kinase inhibition, Caliper LabChip off-chip mobility-shift kinase assay. The format is biochemical. The following applies: Caliper LabChip assay; read-out: Syk Enzyme IC50. Put shortly:
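Purified Syk pre-incubated 15 min with compound in 100 mM HEPES pH 7.5, 1 mM DTT, 10 mM MgCl2 or MnCl2, 0.002% Brij-35, then 1.5 μM fluorescein peptide and ATP at apparent KM added; 1–1.5 h at room temperature, 4% DMSO, EDTA stop. Microfluidic mobility-shift product/substrate conversion gave % inhibition; IC50 from 12-point series (10–0.00003 μM) by 4-parameter fit.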
A word on the IC50: it is the concentration needed to halve the response being measured. `CC(C)(C)Nc1nc(Nc2cc(C(C)(C)O)ncn2)cc2ccn(C3COC3)c(=O)c12` [compound 734]: the concentration for half-maximal inhibition (IC50) worked out at 57 nM.

With `CC(C)(C)Nc1nc(Nc2cnccn2)cc2ccn(C[C@@H](O)CO)c(=O)c12` [compound 668, (R)-8-(tert-butylamino)-2-(2,3-dihydroxypropyl)-6-(pyrazin-2-ylamino)-2,7-naphthyridin-1(2H)-one], the half-inhibitory concentration (IC50) was found to be 7 nM.

For `CC(C)(C)Nc1nc(Nc2cc(CN3CCCCC3)ccn2)cc2ccn(CCO)c(=O)c12` [compound 604], the IC50 amounted to 251 nM.

On to `CCn1ccc2cc(Nc3cc(C)ccn3)nc(NC3CC=C(C)CC3)c2c1=O` (stereo not drawn) [compound 954], for which the IC50 was found to be 754 nM.

Regarding `CCn1ccc2cc(Nc3cc(C)ccn3)nc(N[C@H](C)CO)c2c1=O` [compound 962], the half-maximal inhibitory concentration (IC50) was 92 nM.

Turning to `CN1CCC(Oc2cc(Nc3cc4ccn(C[C@H](O)CO)c(=O)c4c(NC(C)(C)C)n3)ncn2)CC1` [compound 649], the IC50 was determined as 6 nM.

Turning to `CC1(Nc2nc(Nc3cnccn3)cc3cc[nH]c(=O)c23)CC1` [compound 839], the IC50 is 8 nM.

On to `Nc1ncc(-c2cc3ccn(C[C@H](O)CO)c(=O)c3c(NC3CCC3)n2)cn1` [compound 774], for which the 50% inhibitory concentration (IC50) is 34 nM.

Take `CC(C)(C)Nc1nc(-c2cnc(N)nc2)cc2ccn(CCS(C)(=O)=O)c(=O)c12` [compound 737]: the IC50 turned out to be 20 nM.

For the compound `NC(=O)Cn1ccc2cc(-c3cnc(N)nc3)nc(NC3CCCC3)c2c1=O` [compound 757], the 50% inhibitory concentration (IC50) came to 59 nM.

As for `CC(CO)c1ccnc(Nc2cc3ccn(CCO)c(=O)c3c(NC(C)(C)C)n2)c1` (stereo not drawn) [compound 864], the IC50 was 2 nM.

Turning to `O=c1c2c(N[C@H]3CC[C@@H](O)CC3)nc(Nc3cnccn3)cc2ccn1CC(O)C(F)(F)F` (stereo partly drawn) [compound 1012], the IC50 amounted to 56 nM.

With `C#CCn1ccc2cc(Nc3cnccn3)nc(NC(C)(C)C)c2c1=O` [compound 882], the IC50 was determined as 51 nM.

In the case of `O=c1c2c(N[C@H]3CC[C@@H](O)CC3)nc(Nc3cnccn3)cc2ccn1CC(F)(F)F` [compound 1025], the concentration for half-maximal inhibition (IC50) is 16 nM.

Regarding `CC(O)c1ccnc(Nc2cc3ccn(CC(N)=O)c(=O)c3c(NC3(C)CC3)n2)c1` (stereo not drawn) [compound 723], the half-inhibitory concentration (IC50) turned out to be 48 nM.

Turning to `N#CCCn1ccc2cc(Nc3cnccn3)nc(N[C@H]3CC[C@@H](O)CC3)c2c1=O` [compound 1002], the 50% inhibitory concentration (IC50) stood at 14 nM.

Regarding `CC(C)(C)Nc1nc(Nc2cnccn2)cc2ccn(Cc3c[nH]nn3)c(=O)c12` [compound 881], the IC50 was 18 nM.

Take `CC(C)(C)Nc1nc(-c2cnc(N)c(CO)c2)cc2ccn(CCO)c(=O)c12` [compound 720]: the IC50 amounted to 75 nM.

In the case of `CN(C)CCNC(=O)c1ccnc(Nc2cc3ccn(CCO)c(=O)c3c(NC(C)(C)C)n2)c1` [compound 683], the IC50 amounted to 595 nM.

On to `O=c1[nH]ccc2cc(NC3CCC(O)CC3)nc(Nc3ccc(N4CCOCC4)cc3)c12` (stereo not drawn) [compound 657], for which the IC50 was 152 nM.

`Cc1cn(CCO)c(=O)c2c(NC(C)(C)C)nc(-c3cnc(N)nc3)cc12` [compound 671]: the concentration for half-maximal inhibition (IC50) amounted to 13 nM.

Consider `CC(C)(C)Nc1nc(Nc2cc(C(C)(C)O)ccn2)cc2ccn(CCO)c(=O)c12` [compound 698, 8-(tert-butylamino)-2-(2-hydroxyethyl)-6-(4-(2-hydroxypropan-2-yl)pyridin-2-ylamino)-2,7-naphthyridin-1(2H)-one], for which the concentration for half-maximal inhibition (IC50) came out at 131 nM.

On to `CC(C)(C)Nc1nc(Nc2cc(N3CC(O)C3)ncn2)cc2ccn(CCO)c(=O)c12` [compound 631], for which the IC50 came out at 233 nM.

As for `CCn1ccc2cc(-c3cnc(N)nc3)nc(N[C@H]3CC[C@@H](O)C3)c2c1=O` [compound 1039], the IC50 turned out to be 12 nM.

Staying with this series, now noted: read-out: Syk Enzyme IC50.
On to `Cn1ccc2cc(Nc3cnccn3)nc(NCCCO)c2c1=O` [compound 474], for which the IC50 was 140 nM.

Take `COc1cncc(-c2cc3cc[nH]c(=O)c3c(Nc3ccc(C4CCN(CCN(C)C)CC4)c(C)c3)n2)n1` [compound 63]: the IC50 was found to be 33 nM.

Consider `CCOCCc1cc2cc[nH]c(=O)c2c(Nc2ccc(C3CCN(C4CC4)CC3)c(C)c2)n1` [compound 227], for which the 50% inhibitory concentration (IC50) turned out to be 398 nM.

For `COc1cncc(-c2cc3cc[nH]c(=O)c3c(Nc3ccc(C4CCN(C(=O)N5CCNC5=O)CC4)c(C)c3)n2)n1` [compound 114], the IC50 was 174 nM.

As for `O=c1c2c(N[C@H]3CC[C@@H](O)CC3)nc(Nc3cnccn3)cc2ccn1CCO` [compound 376], the IC50 is 6 nM.

For the compound `Cc1ccnc(Nc2cc3cc[nH]c(=O)c3c(NC(C)(C)C)n2)c1` [compound 494], the IC50 came to 75 nM.

On to `Cc1ccnc(Nc2cc3cc[nH]c(=O)c3c(NCC3CCNCC3)n2)c1` [compound 554], for which the half-maximal inhibitory concentration (IC50) came to 86 nM.

Consider `COc1cncc(-c2cc3cc[nH]c(=O)c3c(Nc3ccc(C4CCN(C(=O)C5CCOC5)CC4)c(C)c3)n2)n1` (stereo not drawn) [compound 89], for which the half-maximal inhibitory concentration (IC50) was 55 nM.

Consider `CCn1ccc2cc(Nc3cc(C)c(F)cn3)nc(N[C@@H](C)CO)c2c1=O` [compound 395], for which the IC50 turned out to be 85 nM.

Regarding `CCOC(=O)c1ccc(Nc2cc3cc[nH]c(=O)c3c(Nc3ccc(N4CCOCC4)cc3)n2)nc1` [compound 578], the IC50 was 186 nM.

As for `COCCCc1cc2cc[nH]c(=O)c2c(Nc2ccc(N3CCO[C@H](C)C3)c(C)c2)n1` [compound 239], the half-maximal inhibitory concentration (IC50) turned out to be 2220 nM.

Consider `Cc1ccnc(Nc2cc3ccn(CCO)c(=O)c3c(NC(C)(C)C)n2)c1` [compound 487], for which the IC50 stood at 102 nM.

Take `Cc1ccc(Nc2cc3cc[nH]c(=O)c3c(Nc3ccc(N4CCOCC4)cc3)n2)nc1` [compound 545]: the concentration for half-maximal inhibition (IC50) was 3850 nM.

On to `COCC(C)Nc1nc(Nc2ccccn2)cc2cc[nH]c(=O)c12` (stereo not drawn) [compound 276], for which the IC50 turned out to be 167 nM.

`CCCc1ccnc(Nc2cc3ccn(CC)c(=O)c3c(NC(C)C)n2)c1` [compound 306]: the IC50 was determined as 612 nM.

For the compound `CCNC(=O)CN1CCC(c2ccc(Nc3nc(-c4cncc(OC)n4)cc4cc[nH]c(=O)c34)cc2C)CC1` [compound 179], the concentration for half-maximal inhibition (IC50) worked out at 80 nM.

Regarding `COc1cncc(-c2cc3cc[nH]c(=O)c3c(Nc3ccc(C4CCN(CCCC#N)CC4)c(C)c3)n2)n1` [compound 172], the IC50 was 19 nM.

`CN1CCN(C2CCC(c3ccc(Nc4nc(-c5cncnc5)cc5cc[nH]c(=O)c45)cc3)CC2)CC1` (stereo not drawn) [compound 104]: the half-inhibitory concentration (IC50) was found to be 31 nM.

With `Cc1ccnc(Nc2cc3cc[nH]c(=O)c3c(Nc3ccc(N4CCOCC4)cc3)n2)c1` [compound 480], the half-maximal inhibitory concentration (IC50) was determined as 15 nM.

For `CCOCCOc1cccc(Nc2nc(Nc3cnccn3)cc3ccn(C)c(=O)c23)c1` [compound 337], the concentration for half-maximal inhibition (IC50) is 2130 nM.

For `Cc1ccnc(Nc2cc3cc[nH]c(=O)c3c(NCCCO)n2)c1` [compound 504], the concentration for half-maximal inhibition (IC50) was determined as 48 nM.

For `COc1cncc(-c2cc3cc[nH]c(=O)c3c(Nc3ccc(C4CCN(C(C)C(=O)NCCO)CC4)c(C)c3)n2)n1` (stereo not drawn) [compound 122], the IC50 turned out to be 92 nM.

For `Cc1ncc(-c2cc3cc[nH]c(=O)c3c(Nc3ccc([C@H]4CC[C@@H](N5CCOCC5)CC4)cc3)n2)cn1` [compound 11], the half-inhibitory concentration (IC50) was found to be 652 nM.

Regarding `CCOCCOc1ccc(Nc2nc(Nc3cnccn3)cc3ccn(C)c(=O)c23)cc1` [compound 340], the IC50 amounted to 2060 nM.

In the case of `Cn1ccc2cc(-c3cnc(N)nc3)nc(NCCN3CCOCC3)c2c1=O` [compound 36], the half-inhibitory concentration (IC50) stood at 428 nM.

On to `COCCNC(=O)C(C)N1CCC(c2ccc(Nc3nc(-c4cncc(OC)n4)cc4cc[nH]c(=O)c34)cc2C)CC1` (stereo not drawn) [compound 123], for which the IC50 came out at 150 nM.

`COc1cncc(-c2cc3cc[nH]c(=O)c3c(Nc3ccc(C4CCN(CCC#N)CC4)c(C)c3)n2)n1` [compound 128]: the half-inhibitory concentration (IC50) stood at 79 nM.

For the compound `O=c1c2c(N[C@H]3CCOC3)nc(Nc3cnccn3)cc2ccn1CCO` [compound 375], the IC50 was 14 nM.

Test system in the next series: not listed separately
Nature of the series: Pharmacokinetic parameters (bioavailability, metabolic stability, half life, compound exposure). The conditions noted are these: qualitative statement, values not given.
On to `CC(C)(C)Nc1nc(Nc2cnccn2)cc2ccn(C[C@@H](O)CO)c(=O)c12` [compound 668, (R)-8-(tert-butylamino)-2-(2,3-dihydroxypropyl)-6-(pyrazin-2-ylamino)-2,7-naphthyridin-1(2H)-one], for which the “pharmacokinetic parameters, such as bioavailablity, enhanced metabolic stability, half life and compound exposure” value is recorded as “improved pharmacokinetic parameters”.

For a further series, the target named is T1, Syk kinase. Nature of the series: Selectivity for Syk kinase over other kinases, receptors, enzymes and transporters. The format is biochemical. The following applies: qualitative statement, values not given.
Regarding `CC(C)(C)Nc1nc(Nc2cc(C(C)(C)O)ncn2)cc2ccn(C3COC3)c(=O)c12` [compound 734], the “selectivity for Syk kinase over other kinases, as well as other receptors, enzymes and transporters” value was “improved Syk selectivity”.
